This is an account of results in ChEMBL document CHEMBL2384904, “Discovery of potent, selective, bioavailable phosphodiesterase 2 (PDE2) inhibitors active in an osteoarthritis pain model, part I: transformation of selective pyrazolodiazepinone phosphodiesterase 4 (PDE4) inhibitors into selective PDE2 inhibitors” (Bioorg Med Chem Lett, 2013).

The target in series [1] is cGMP-dependent 3',5'-cyclic phosphodiesterase (Homo sapiens, UniProt O00408). Nature of the series: Inhibition of PDE2 (unknown origin).
The next series deals with Phosphodiesterase 4 (Homo sapiens, UniProt P27815+Q08499+Q07343+Q08493). Nature of the series: Inhibition of PDE4 (unknown origin). It is filed as protein assay.
The species named for series [2] is Homo sapiens. Nature of the series: Selectivity ratio of IC50 for PDE4 (unknown origin) to IC50 for PDE2 (unknown origin).
The next series can be described thus: in vitro. The settings on record: human, liver microsomes.
The species entered for series [3] is Homo sapiens. Kind of series: Selectivity ratio of IC50 for PDE4B (unknown origin) to IC50 for PDE2 (unknown origin).
For series [4], the target named is 3',5'-cyclic-AMP phosphodiesterase 4B (Homo sapiens, UniProt Q07343). Nature of the series: Inhibition of PDE4B (unknown origin).
For series [5], the target named is Dual 3',5'-cyclic-AMP and -GMP phosphodiesterase 11A (Homo sapiens) (UniProt Q9HCR9). Kind of series: Inhibition of PDE11 (unknown origin).
The target of series [6] is High affinity cGMP-specific 3',5'-cyclic phosphodiesterase 9A (Homo sapiens) (UniProt O76083). Nature of the series: Inhibition of PDE9 (unknown origin).
The target of series [7] is cAMP and cAMP-inhibited cGMP 3',5'-cyclic phosphodiesterase 10A (Homo sapiens) (UniProt Q9Y233). Kind of series: Inhibition of PDE10 (unknown origin).
Series [8] has as its target Phosphodiesterase 6 (Homo sapiens) (UniProt Q13956+P18545+P35913+O43924+P16499+P51160). Nature of the series: Inhibition of PDE6 (unknown origin). It is filed as protein assay.
Series [9] deals with Phosphodiesterase 7 (Homo sapiens) (UniProt Q13946+Q9NP56). Nature of the series: Inhibition of PDE7 (unknown origin). It is filed as protein assay.
The target in series [10] is Phosphodiesterase 8 (Homo sapiens) (UniProt O95263+O60658). Nature of the series: Inhibition of PDE8 (unknown origin). It is filed as protein assay.
The target in series [11] is cGMP-specific 3',5'-cyclic phosphodiesterase (Homo sapiens) (UniProt O76074). Nature of the series: Inhibition of PDE5 (unknown origin).
In series [12] the target is Phosphodiesterase 3 (Homo sapiens) (UniProt Q14432+Q13370). Nature of the series: Inhibition of PDE3 (unknown origin). It counts as protein assay.
The target in series [13] is Phosphodiesterase 1 (Homo sapiens) (UniProt P54750+Q01064+Q14123). Kind of series: Inhibition of PDE1 (unknown origin). It counts as protein assay.
Series [14] is described as follows: Bioavailability in rat. It is filed as ADME, organism-based. The settings on record: in vivo.
A short description of series [15]: Half life in po dosed rat. The settings on record: in vivo. It is filed as ADME, organism-based.
The nature of series [16]: Half life in iv dosed rat. The settings on record: in vivo. It counts as ADME, organism-based.

A value given as a limit tells only on which side of the number the result lay.

3',5'-cyclic-AMP phosphodiesterase 4B, sequence (Q07343 whole entry): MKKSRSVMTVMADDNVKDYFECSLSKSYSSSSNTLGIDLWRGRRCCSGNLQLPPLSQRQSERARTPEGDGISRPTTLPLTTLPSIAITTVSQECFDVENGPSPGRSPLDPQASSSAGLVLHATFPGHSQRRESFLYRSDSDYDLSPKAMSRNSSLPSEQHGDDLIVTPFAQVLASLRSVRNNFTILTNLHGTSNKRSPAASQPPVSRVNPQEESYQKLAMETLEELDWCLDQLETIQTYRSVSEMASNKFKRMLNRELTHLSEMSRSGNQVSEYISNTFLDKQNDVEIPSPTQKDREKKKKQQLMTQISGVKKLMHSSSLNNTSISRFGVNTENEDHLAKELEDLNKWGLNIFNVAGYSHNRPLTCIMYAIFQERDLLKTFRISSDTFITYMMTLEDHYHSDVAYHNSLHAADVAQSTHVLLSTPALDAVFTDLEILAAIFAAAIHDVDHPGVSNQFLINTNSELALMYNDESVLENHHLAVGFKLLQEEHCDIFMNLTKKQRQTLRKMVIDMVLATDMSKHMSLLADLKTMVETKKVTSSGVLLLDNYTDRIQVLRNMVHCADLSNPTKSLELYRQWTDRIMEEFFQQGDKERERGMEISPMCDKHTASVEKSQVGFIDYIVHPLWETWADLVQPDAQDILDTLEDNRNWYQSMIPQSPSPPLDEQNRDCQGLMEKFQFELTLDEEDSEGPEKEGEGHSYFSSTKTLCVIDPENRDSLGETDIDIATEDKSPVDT
cGMP-dependent 3',5'-cyclic phosphodiesterase, sequence (O00408 whole entry): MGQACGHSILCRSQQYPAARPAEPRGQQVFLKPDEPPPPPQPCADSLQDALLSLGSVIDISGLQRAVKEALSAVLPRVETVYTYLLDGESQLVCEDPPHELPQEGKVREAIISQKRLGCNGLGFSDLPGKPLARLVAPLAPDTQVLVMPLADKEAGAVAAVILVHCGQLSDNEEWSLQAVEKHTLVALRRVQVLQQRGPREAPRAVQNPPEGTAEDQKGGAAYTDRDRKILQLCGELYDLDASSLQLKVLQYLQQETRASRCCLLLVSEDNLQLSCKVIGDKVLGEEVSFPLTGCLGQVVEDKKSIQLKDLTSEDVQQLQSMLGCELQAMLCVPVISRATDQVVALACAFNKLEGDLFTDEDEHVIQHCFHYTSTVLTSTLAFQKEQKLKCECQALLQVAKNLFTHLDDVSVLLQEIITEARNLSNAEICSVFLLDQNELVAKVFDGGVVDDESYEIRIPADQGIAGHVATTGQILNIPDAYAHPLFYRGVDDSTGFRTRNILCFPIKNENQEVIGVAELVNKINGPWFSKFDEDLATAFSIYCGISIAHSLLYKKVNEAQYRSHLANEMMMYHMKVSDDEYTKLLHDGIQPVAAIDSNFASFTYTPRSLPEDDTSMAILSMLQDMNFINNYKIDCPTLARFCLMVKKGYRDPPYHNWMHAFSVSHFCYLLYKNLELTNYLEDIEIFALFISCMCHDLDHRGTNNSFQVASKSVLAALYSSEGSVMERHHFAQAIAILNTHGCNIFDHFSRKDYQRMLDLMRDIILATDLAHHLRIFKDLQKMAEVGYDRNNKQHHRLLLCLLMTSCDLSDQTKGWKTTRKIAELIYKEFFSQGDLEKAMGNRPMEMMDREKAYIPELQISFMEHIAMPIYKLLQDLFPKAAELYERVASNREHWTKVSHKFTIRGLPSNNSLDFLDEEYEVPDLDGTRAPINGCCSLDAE
Phosphodiesterase 8 (Homo sapiens), sequence (O60658 whole entry, looked up): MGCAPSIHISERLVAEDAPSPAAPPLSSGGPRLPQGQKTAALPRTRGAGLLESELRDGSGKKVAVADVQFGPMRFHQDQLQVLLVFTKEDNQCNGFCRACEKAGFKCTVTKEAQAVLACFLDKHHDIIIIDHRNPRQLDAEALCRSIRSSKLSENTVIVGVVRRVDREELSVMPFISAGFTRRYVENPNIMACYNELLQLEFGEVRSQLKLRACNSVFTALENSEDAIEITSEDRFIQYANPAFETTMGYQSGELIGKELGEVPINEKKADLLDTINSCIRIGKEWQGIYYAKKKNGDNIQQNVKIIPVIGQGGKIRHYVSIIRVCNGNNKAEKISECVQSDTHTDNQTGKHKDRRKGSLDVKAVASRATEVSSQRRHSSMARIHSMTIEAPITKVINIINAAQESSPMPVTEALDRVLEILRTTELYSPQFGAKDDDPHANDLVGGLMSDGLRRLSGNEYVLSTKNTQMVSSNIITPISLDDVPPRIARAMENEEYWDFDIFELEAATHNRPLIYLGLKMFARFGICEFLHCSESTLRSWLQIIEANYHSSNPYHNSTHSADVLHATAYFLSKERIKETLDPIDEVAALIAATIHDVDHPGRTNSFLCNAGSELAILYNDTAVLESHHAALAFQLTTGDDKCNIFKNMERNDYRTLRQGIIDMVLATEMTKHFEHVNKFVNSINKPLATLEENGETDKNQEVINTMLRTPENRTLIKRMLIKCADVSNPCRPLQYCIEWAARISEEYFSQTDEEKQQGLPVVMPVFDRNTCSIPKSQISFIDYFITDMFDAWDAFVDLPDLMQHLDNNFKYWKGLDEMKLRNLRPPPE
Phosphodiesterase 8 (Homo sapiens), sequence (O95263 whole entry, looked up): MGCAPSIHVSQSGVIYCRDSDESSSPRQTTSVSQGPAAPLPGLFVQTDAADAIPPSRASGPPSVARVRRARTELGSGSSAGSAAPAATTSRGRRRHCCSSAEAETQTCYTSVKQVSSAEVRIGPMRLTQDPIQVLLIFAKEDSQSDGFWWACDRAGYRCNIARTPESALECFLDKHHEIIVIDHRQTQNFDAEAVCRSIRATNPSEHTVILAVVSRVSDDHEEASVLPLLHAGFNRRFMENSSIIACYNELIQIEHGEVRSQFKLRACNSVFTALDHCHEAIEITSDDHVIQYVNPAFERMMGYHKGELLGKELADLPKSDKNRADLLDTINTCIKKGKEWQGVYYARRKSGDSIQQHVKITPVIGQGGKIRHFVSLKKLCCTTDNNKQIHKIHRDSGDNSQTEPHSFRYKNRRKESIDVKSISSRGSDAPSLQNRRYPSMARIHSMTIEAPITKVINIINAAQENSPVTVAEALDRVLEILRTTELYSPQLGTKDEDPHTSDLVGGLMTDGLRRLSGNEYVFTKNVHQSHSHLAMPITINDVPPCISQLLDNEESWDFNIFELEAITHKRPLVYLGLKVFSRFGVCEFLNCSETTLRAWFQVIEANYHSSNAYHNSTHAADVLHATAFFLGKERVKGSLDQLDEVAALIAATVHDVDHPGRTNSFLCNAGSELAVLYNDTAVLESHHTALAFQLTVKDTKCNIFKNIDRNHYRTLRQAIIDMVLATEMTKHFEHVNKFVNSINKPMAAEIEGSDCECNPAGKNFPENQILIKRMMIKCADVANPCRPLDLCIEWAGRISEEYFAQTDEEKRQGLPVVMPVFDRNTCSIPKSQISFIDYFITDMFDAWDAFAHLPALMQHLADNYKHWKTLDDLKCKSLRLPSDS
Phosphodiesterase 7 (Homo sapiens), sequence (Q13946 whole entry, looked up): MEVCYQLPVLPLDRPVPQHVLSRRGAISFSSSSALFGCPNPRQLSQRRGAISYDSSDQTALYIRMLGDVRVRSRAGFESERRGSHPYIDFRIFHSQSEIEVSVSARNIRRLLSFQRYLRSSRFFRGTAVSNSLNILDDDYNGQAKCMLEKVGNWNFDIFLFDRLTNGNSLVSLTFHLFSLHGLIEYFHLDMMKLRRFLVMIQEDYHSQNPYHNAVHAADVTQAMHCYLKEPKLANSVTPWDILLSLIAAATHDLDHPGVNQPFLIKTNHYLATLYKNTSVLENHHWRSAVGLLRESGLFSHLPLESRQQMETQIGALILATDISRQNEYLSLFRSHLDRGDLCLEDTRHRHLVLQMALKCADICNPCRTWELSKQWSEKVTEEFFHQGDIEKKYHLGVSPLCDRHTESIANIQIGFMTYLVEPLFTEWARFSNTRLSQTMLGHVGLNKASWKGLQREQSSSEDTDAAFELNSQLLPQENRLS
Phosphodiesterase 7 (Homo sapiens), sequence (Q9NP56 whole entry, looked up): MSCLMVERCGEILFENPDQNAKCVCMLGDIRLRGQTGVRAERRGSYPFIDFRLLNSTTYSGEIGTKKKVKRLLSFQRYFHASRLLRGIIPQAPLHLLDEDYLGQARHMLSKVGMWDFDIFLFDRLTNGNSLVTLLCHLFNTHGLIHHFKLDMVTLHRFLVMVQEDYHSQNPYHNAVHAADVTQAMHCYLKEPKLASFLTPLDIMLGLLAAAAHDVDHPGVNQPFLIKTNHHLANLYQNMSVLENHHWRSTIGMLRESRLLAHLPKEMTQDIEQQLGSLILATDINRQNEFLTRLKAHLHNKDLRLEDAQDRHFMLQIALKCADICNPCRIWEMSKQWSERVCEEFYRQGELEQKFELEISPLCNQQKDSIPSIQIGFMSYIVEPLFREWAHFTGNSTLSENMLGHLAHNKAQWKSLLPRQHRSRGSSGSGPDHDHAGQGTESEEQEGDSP
High affinity cGMP-specific 3',5'-cyclic phosphodiesterase 9A (Homo sapiens), sequence (O76083 whole entry): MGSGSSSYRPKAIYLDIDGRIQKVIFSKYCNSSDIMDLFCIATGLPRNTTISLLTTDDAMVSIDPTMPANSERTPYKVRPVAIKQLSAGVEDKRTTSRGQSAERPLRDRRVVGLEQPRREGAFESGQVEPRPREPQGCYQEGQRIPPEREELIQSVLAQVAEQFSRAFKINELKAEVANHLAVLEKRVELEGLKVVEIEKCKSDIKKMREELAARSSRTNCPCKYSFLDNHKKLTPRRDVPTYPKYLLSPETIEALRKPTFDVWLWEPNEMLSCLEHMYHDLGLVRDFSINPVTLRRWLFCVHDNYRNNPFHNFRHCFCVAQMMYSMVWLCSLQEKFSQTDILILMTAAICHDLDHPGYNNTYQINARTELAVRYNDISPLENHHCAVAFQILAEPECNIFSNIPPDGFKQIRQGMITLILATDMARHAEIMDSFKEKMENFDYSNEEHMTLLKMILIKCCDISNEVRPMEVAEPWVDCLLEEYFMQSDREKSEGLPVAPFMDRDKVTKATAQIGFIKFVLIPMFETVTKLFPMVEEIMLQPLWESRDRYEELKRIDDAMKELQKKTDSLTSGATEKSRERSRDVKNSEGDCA

One may read the IC50 as the concentration at which inhibition is half-maximal. For the molecule `CC(C)(C)c1nn(CCO)c2c1N=C(c1ccc(F)cc1)CNC2=O`, the IC50 in series [1] was 259 nM; at Phosphodiesterase 4, 31 nM. Besides, the Ratio IC50 in the series listed under Homo sapiens [2] came to 0.12.

Molecule `COc1ccc(Cc2nn3c([C@@H](CCc4ccccc4)[C@@H](C)O)nc(C)c3c(=O)[nH]2)cc1OO` gave an IC50 in series [1] of 4.7 nM.

Usually half-life stands for the time needed for the level to fall by half in the phase considered. Lower therefore signals rapid decline. As to `CCC(CC)c1nn(CCO)c2c1N=C(c1ccc(OC)c(OC)c1)CNC2=O`, the IC50 in series [1] turned out to be 23 nM; against Phosphodiesterase 4, 48 nM. The Ratio IC50 in the series filed under Homo sapiens [2] is 2. In the series “in vitro”, this molecule displayed a half-life of 23 min.

Consider `CCC(C)(C)c1nn(CCO)c2c1N=C(c1ccc(-n3cc(C)nc3C)cc1)CNC2=O`, for which the Ratio IC50 in the series listed under Homo sapiens [3] was 19. The IC50 in series [1] turned out to be 105 nM; in series [4], 1950 nM. In the series “in vitro”, this molecule had a half-life of 9 min.

What is called bioavailability is the share of a dose that reaches the circulation, judged against a reference dose that is usually intravenous. A high value points to much systemic uptake. Take `CCC(CC)c1nn(CC)c2c1N=C(c1ccc(C(=O)O)cc1)CNC2=O`: the INH in series [5], in [6], in [7], in series [8], in [9] and in series [10] was over 5 µM in each case. The INH in series [11], in series [12] and in series [13] was over 5 µM throughout. Moreover, the IC50 in series [1] was 840 nM; at Phosphodiesterase 4, 1.2 nM. For the same molecule, in the series filed under Homo sapiens [2], the Ratio IC50 came out at 0.0015. In addition, in series [14], the bioavailability worked out at 80%. The half-life in series [15] turned out to be 300 min; in series [16] it was 114 min.

`CCC(CC)c1nn(CCCO)c2c1N=C(c1ccc(-n3ccnc3C)cc1)CNC2=O`: the IC50 in series [1] is 328 nM; on Phosphodiesterase 4 it was 10800 nM. Further, in the series filed under Homo sapiens [2], the Ratio IC50 was 33. In addition, the half-life in the series “in vitro” stood at 6 min.

Take `CCC(CC)c1nn(CCCO)c2c1N=C(c1ccccc1)CNC2=O`: the half-life in “in vitro” stood at 36 min.

Turning to `CCCCCC[C@@H]([C@@H](C)O)n1cnc2c(N)ncnc21` (relative stereo) [EHNA], in series [1], the IC50 was determined as 800 nM.

Turning to `CCC(CC)c1nn(CCO)c2c1N=C(c1ccc(-n3ccnc3C)cc1)CNC2=O`, the Ratio IC50 in the series listed under Homo sapiens [3] and in the series filed under Homo sapiens [2] was 11 each time. Besides, the IC50 in [1] worked out at 54 nM; against Phosphodiesterase 4, 538 nM; in series [4] it was 583 nM. The half-life in “in vitro” was found to be 5 min.

On to `CCC(CC)c1nn(CCO)c2c1N=C(c1ccccc1)CNC2=O`, for which the figures for the 50% inhibitory concentration (IC50) (in series [1]; on Phosphodiesterase 4) were 102 nM and 76 nM, respectively. The Ratio IC50 in the series filed under Homo sapiens [2] came out at 0.7. The half-life in “in vitro” was determined as 20 min.

With `CC(C)c1nccn1-c1ccc(C2=Nc3c(C(C)(C)C)nn(CCO)c3C(=O)NC2)cc1`, the Ratio IC50 in the series listed under Homo sapiens [3] amounted to 3. Besides, the IC50 in series [1] stood at 97 nM; in series [4], 330 nM. The molecule further showed a half-life in “in vitro” of 12 min.

Consider `CCC(C)(C)c1nn(CCO)c2c1N=C(c1ccc(-n3ccnc3C)cc1)CNC2=O`, for which, in the series listed under Homo sapiens [3], the Ratio IC50 is 8. Also, the IC50 in [1] is 45 nM; in series [4] it was 378 nM. This molecule came in with a half-life in the series “in vitro” of 7 min.

As to `CCC(CC)c1nn(CCCO)c2c1N=C(c1ccc(OC)c(OC)c1)CNC2=O`, the values for the IC50 (in series [1]; at Phosphodiesterase 4) were 93 nM and 365 nM, respectively. Also, the Ratio IC50 in the series listed under Homo sapiens [2] came to 4. Also, in the series “in vitro”, the half-life is 44 min.
